Source: article PMC11830721 (Frontiers in Pharmacology, 2025)

Assays:
[1] = molecular target: 60 non-target kinases; experiment: SelectScreen kinase selectivity profiling, whole panel; type: biochemical; settings: all 60 kinases
Source text: (§1) Moreover, we extended the kinase selectivity profiling of FLIN-4 to evaluate its inhibitory activity against 60 non-target kinases.

[2] = test system: NB4 cells; experiment: MTT assay, NB4 (FLT3 wild-type); type: cell-based; settings: 2–64 μM
Source text: (§2) The human AML cell line MV4-11, which bears exclusive FLT3-ITD mutation genes, was purchased from the American Type Culture Collection (ATCC, Manassas, VA, United States), and the AML cell line NB4, a FLT3-wildtype cell line, was obtained from the China Center for Type Culture Collection (CCTCC, Wuhan, China). In addition, the normal hematopoietic cell line was COLO 829BL from ATCC. The cells were maintained in RPMI-1640 medium supplemented with 10% FBS, and 1% penicillin and streptomycin. The cells were cultured in an incubator at 37°C with 5% CO2. […] The high-performance liquid chromatography (HPLC) spectra data for each compound are provided in the (Supplementary Figures S1–S6). The FLT3-ITD mutant protein was purchased from Abcam (Cambridge, United Kingdom).
(§3) The effects of the test compounds on MV4-11, NB4, and COLO 829BL cell lines were quantitatively evaluated according to the methods previously reported ([Zhou et al., 2022]).
(§4) Subsequently, to further validate the specificity of FLIN-4 for cells expressing FLT3-ITD, we conducted MTT assays to assess the specificity and cytotoxicity of FLIN-4 within the concentration range of 2–64 μM on NB4 cells (harboring FLT3 wild-type) and COLO 829BL cells (representing normal hematopoietic cells). […]

[3] = test system: FLT3-ITD; experiment: ADP-Glo kinase-inhibition assay; type: biochemical; settings: ratio of IC50 values vs Midostaurin
Protocol: (§5) Subsequently, the kinase detection reagent was added and incubated for an additional 15 min. Finally, the mixture was incubated for 1 h, and relative luminescence units (RLU) were measured.
as §1

[4] = molecular target: T1, FLT3-ITD (Homo sapiens, UniProt P36888, ITD); experiment: ADP-Glo kinase-inhibition assay; type: biochemical; settings: ADP-Glo; ATP 100 μM; FLT3-ITD 10 ng/μL
T1 sequence (P36888 27-993): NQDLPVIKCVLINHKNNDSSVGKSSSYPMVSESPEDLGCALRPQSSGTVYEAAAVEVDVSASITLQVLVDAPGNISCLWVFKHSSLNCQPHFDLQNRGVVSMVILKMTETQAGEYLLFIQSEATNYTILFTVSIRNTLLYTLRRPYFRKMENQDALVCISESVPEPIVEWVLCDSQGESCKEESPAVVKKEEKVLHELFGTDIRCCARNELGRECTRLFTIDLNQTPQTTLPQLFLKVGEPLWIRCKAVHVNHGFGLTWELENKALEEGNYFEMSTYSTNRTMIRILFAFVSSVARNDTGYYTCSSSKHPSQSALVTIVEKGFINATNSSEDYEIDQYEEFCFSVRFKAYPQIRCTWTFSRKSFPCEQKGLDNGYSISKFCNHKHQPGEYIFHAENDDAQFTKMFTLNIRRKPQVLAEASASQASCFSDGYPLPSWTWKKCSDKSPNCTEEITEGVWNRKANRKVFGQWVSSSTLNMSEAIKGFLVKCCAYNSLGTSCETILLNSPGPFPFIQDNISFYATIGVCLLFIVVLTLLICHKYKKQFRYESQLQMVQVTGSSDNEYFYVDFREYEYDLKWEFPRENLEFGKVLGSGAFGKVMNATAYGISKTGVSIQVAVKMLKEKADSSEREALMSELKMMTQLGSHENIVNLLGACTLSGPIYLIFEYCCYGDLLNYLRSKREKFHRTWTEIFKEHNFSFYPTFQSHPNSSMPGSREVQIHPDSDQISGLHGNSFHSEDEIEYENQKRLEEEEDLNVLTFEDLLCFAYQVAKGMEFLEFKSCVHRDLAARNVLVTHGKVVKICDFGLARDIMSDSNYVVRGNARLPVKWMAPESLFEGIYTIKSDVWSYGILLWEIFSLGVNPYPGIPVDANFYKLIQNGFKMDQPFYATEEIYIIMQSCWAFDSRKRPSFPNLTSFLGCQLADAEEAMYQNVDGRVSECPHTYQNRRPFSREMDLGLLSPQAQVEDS
Protocol: as §5, §1

[5] = molecular target: T1, FLT3-ITD; experiment: Microscale thermophoresis (MST) binding affinity; settings: 50 mM Tris, 230 mM NaCl, pH 7.0, labeled protein 50 nM
Protocol: The protein was labeled with a fluorescence tag utilizing a Lys Labeling Kit (NanoTemper), with a final concentration of 50 nM being achieved. Adhering to the manufacturer’s guidelines, the compounds were titrated from an initial concentration of 12.5 μM with a 1:1 dilution ratio. Next, each sample was centrifuged at 15,000 rpm for 5 min, followed by loading into standard glass capillaries for MST analysis.

[6] = test system: FLT3 signaling pathway (p-FLT3, p-STAT5, p-ERK) in MV4-11 cells; experiment: Western blot of FLT3 signaling pathway in MV4-11 cells; type: cell-based, human; settings: 4 h, MV4-11, Western blot quantification
Protocol: The MV4-11 cell line was subjected to a 4 h exposure to varying concentrations of the FLIN-4 compound. Subsequent to this treatment, cellular lysis was conducted using RIPA lysis buffer (Sigma-Aldrich, United States) to isolate total cellular proteins. Subsequently, protein concentrations were precisely quantified using the BCA protein assay kit (Beyotime, Nantong, China). Western blot analysis was carried out in accordance with established methodologies ([Zhou et al., 2022]). The primary antibodies utilized in this study included: rabbit anti-FLT3 (21049−1-AP, Proteintech Group), rabbit anti-phospho-FLT3 (ab171975, Abcam), rabbit anti-Stat5 (#94205, CST), rabbit anti-Phospho-Stat5 (#4322, CST), rabbit anti-ERK (16443−1-AP, Proteintech Group), rabbit anti-phospho-ERK (28733−1-AP, Proteintech Group), and a rabbit anti-GAPDH antibody (10494−1-AP, Proteintech Group) served as an endogenous loading control.
To elucidate the impact of FLIN-4 on the FLT3 signaling cascade, we conducted a Western blot analysis in MV4-11 cells to evaluate the relative expression levels of pivotal phosphorylated proteins.

[7] = test system: COLO 829BL cells; experiment: MTT assay, COLO 829BL (normal hematopoietic); type: cell-based; settings: 2–64 μM
Source text: as §2, §3, §4

[8] = test system: MV4-11 cells; experiment: MTT anti-proliferation assay, MV4-11; type: cell-based; settings: Homo sapiens, 72-h treatment
Protocol: In addition, the normal hematopoietic cell line was COLO 829BL from ATCC. The cells were maintained in RPMI-1640 medium supplemented with 10% FBS, and 1% penicillin and streptomycin. The cells were cultured in an incubator at 37°C with 5% CO2. […] The high-performance liquid chromatography (HPLC) spectra data for each compound are provided in the (Supplementary Figures S1–S6).
as §3

For CCc1nc(C(N)=O)c(Nc2ccc(N3CCC(Nc4ccccc4)CC3)c(OC)c2)nc1NC1CCOC(C(O)CO)C1 (stereo not shown) [FLIN-4], the IC50 [1] was greater than 10000 nM, the “Survival rate of NB4 cells” value [2] was “did not induce any significant changes in the survival rates” and the “FLT3-ITD inhibitory potency relative to Midostaurin” value [3] was “approximately 27 times”. The IC50 [4] was 1.07 ± 0.04 nM, the Kd [5] was 0.95 ± 0.06 nM and the p-ERK/ERK expression level ([6]; 3 nM) was “significant diminution”. For the same molecule, the p-FLT3/FLT3 expression level ([6]; 3 nM) was “significant diminution”, the p-STAT5/STAT5 expression level ([6]; 3 nM) was “significant diminution” and the p-ERK/ERK expression level ([6]; 30 nM) was “exacerbated decrease”. For the same molecule, the p-FLT3/FLT3 expression level ([6]; 30 nM) was “exacerbated decrease”, the p-STAT5/STAT5 expression level ([6]; 30 nM) was “exacerbated decrease” and the “Survival rate of COLO 829BL cells” value [7] was “did not induce any significant changes in the survival rates”. The IC50 [8] was 1.31 ± 0.06 nM.
